What was measured:
Experiment in all cases: radiometric filter-binding kinase assay, Kinase HotSpot
Settings in all cases: compound 0.5 µM; ATP 10 µM
CSNK1G2 (human) = CSNK1G2 (human) (UniProt P78368)
SRMS (human) = SRMS (human) (UniProt Q9H3Y6)
NEK7 (human) = NEK7 (human) (UniProt Q8TDX7)
DYRK3 (human) = DYRK3 (human) (UniProt O43781)
NEK3 (human) = NEK3 (human) (UniProt P51956)
RAF1 (human) = RAF1 (human) (UniProt P04049)
BTK (human) = BTK (human) (UniProt Q06187)
DMPK (human) = DMPK (human) (UniProt Q09013)
PIM1 (human) = PIM1 (human) (UniProt P11309)
CSF1R (human) = CSF1R (human) (UniProt P07333)
EPHA8 (human) = EPHA8 (human) (UniProt P29322)
STK25 (human) = STK25 (human) (UniProt O00506)
PNCK (human) = PNCK (human) (UniProt Q6P2M8)
Chain of PNCK (human) (Q6P2M8 whole entry, looked up): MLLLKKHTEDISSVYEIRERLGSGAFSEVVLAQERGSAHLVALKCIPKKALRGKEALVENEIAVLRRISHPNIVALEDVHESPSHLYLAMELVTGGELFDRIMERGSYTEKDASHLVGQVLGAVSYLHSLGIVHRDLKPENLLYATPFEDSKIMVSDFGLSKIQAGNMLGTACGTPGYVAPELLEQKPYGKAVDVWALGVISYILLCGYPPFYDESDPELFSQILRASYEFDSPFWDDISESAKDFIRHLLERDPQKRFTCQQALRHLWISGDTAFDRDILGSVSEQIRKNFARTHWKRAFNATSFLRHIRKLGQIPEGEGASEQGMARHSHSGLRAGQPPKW

MINK1 (human) = MINK1 (human) (UniProt Q8N4C8)
FGFR3 (human) = FGFR3 (human) (UniProt P22607)
ITK (human) = ITK (human) (UniProt Q08881)
PRKACA (human) = PRKACA (human) (UniProt P17612)
CAMK2G (human) = CAMK2G (human) (UniProt Q13555)
CSNK2A2 (human) = CSNK2A2 (human) (UniProt P19784)
MUSK (human) = MUSK (human) (UniProt O15146)
MARK3 (human) = MARK3 (human) (UniProt P27448)
CSNK1G1 (human) = CSNK1G1 (human) (UniProt Q9HCP0)
Chain of CSNK1G1 (human) (Q9HCP0 whole entry, looked up): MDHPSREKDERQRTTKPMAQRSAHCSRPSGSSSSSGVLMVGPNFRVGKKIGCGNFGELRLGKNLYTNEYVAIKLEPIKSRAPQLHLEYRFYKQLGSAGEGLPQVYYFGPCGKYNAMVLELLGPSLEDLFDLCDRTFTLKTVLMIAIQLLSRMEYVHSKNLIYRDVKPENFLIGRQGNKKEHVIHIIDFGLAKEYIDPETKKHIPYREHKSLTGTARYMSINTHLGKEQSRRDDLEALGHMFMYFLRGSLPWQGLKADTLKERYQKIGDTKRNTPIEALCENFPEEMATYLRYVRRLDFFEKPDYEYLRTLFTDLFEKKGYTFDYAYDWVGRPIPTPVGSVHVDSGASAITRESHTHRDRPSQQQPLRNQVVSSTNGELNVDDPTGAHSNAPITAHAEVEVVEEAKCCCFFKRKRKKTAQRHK

FGFR4 (human) = FGFR4 (human) (UniProt P22455)
OXSR1 (human) = OXSR1 (human) (UniProt O95747)
ULK1 (human) = ULK1 (human) (UniProt O75385)
Chain of ULK1 (human) (O75385 whole entry, looked up): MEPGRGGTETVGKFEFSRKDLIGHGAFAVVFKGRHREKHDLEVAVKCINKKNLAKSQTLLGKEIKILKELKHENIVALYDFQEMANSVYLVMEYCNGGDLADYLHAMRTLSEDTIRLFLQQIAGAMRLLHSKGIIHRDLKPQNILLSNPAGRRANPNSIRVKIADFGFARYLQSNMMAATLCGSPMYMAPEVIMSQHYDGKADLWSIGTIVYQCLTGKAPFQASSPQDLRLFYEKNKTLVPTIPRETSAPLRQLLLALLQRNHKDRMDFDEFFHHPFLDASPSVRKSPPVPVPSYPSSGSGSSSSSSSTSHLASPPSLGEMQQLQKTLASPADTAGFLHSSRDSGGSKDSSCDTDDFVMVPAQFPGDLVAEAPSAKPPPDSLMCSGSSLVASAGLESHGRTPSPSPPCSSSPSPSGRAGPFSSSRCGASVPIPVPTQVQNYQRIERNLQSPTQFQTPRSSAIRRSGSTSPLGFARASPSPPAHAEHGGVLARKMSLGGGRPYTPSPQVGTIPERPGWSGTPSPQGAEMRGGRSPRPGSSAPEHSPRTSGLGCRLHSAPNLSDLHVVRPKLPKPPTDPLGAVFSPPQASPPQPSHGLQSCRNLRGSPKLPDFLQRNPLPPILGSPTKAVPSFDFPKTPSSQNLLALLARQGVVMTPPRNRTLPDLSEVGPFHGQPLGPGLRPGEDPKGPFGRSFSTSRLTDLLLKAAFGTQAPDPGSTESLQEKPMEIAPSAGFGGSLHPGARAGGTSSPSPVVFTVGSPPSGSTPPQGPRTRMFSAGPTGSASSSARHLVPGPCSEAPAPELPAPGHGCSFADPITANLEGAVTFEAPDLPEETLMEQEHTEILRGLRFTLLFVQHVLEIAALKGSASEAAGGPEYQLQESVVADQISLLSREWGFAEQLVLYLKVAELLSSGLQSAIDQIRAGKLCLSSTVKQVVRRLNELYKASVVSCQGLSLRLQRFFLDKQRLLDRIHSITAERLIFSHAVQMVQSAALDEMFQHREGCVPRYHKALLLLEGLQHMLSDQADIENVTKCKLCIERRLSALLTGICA

DYRK1A (human) = DYRK1A (human) (UniProt Q13627)
MAP3K5 (human) = MAP3K5 (human) (UniProt Q99683)
EPHB3 (human) = EPHB3 (human) (UniProt P54753)
PLK3 (human) = PLK3 (human) (UniProt Q9H4B4)
CAMK2A (human) = CAMK2A (human) (UniProt Q9UQM7)
MYLK2 (human) = MYLK2 (human) (UniProt Q9H1R3)
EPHA1 (human) = EPHA1 (human) (UniProt P21709)
STK33 (human) = STK33 (human) (UniProt Q9BYT3)
JAK3 JH1 JH2 (human) = JAK3 JH1 JH2 (human) (UniProt P52333)
Chain of JAK3 JH1 JH2 (human) (P52333 whole entry, looked up): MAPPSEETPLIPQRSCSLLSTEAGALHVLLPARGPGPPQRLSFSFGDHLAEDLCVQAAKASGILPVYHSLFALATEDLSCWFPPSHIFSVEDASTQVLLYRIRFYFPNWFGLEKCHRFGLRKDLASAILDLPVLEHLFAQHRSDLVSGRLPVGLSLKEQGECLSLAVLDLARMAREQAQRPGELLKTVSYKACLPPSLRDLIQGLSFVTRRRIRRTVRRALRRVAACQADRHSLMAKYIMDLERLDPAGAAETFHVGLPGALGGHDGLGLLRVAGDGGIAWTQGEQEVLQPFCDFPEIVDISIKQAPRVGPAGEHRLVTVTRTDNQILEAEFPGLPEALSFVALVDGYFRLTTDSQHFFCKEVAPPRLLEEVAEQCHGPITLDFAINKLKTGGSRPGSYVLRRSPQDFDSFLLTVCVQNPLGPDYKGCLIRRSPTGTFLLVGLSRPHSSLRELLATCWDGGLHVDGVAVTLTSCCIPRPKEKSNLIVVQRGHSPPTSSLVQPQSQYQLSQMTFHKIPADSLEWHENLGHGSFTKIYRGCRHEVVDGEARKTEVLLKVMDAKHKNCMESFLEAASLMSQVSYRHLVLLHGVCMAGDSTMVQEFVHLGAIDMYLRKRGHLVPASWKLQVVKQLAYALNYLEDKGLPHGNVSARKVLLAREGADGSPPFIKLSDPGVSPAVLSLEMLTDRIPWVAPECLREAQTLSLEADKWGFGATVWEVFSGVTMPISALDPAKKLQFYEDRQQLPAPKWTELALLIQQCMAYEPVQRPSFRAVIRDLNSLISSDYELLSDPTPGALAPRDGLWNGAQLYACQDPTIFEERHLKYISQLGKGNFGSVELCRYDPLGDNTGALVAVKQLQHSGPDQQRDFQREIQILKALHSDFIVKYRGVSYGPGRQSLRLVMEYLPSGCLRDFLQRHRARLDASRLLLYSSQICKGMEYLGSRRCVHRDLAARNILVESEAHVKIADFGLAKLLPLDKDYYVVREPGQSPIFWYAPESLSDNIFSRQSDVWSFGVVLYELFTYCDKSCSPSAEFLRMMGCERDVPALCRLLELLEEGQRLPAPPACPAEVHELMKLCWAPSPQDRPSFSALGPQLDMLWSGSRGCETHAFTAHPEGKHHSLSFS

MAP4K4 (human) = MAP4K4 (human) (UniProt O95819)
PBK (human) = PBK (human) (UniProt Q96KB5)
Chain of PBK (human) (Q96KB5 whole entry, looked up): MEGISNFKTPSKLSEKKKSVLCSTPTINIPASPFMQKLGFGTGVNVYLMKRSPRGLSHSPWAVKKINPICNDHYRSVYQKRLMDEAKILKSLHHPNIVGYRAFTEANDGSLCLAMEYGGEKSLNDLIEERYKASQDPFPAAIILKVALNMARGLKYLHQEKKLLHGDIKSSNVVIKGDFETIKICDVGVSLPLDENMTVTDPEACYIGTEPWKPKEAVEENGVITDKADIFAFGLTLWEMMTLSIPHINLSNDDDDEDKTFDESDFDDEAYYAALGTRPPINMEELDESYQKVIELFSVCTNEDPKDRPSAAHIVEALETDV

MERTK (human) = MERTK (human) (UniProt Q12866)
PIM3 (human) = PIM3 (human) (UniProt Q86V86)
NUAK1 (human) = NUAK1 (human) (UniProt O60285)
GSK3B (human) = GSK3B (human) (UniProt P49841)
WEE1 (human) = WEE1 (human) (UniProt P30291)
Chain of WEE1 (human) (P30291 whole entry, looked up): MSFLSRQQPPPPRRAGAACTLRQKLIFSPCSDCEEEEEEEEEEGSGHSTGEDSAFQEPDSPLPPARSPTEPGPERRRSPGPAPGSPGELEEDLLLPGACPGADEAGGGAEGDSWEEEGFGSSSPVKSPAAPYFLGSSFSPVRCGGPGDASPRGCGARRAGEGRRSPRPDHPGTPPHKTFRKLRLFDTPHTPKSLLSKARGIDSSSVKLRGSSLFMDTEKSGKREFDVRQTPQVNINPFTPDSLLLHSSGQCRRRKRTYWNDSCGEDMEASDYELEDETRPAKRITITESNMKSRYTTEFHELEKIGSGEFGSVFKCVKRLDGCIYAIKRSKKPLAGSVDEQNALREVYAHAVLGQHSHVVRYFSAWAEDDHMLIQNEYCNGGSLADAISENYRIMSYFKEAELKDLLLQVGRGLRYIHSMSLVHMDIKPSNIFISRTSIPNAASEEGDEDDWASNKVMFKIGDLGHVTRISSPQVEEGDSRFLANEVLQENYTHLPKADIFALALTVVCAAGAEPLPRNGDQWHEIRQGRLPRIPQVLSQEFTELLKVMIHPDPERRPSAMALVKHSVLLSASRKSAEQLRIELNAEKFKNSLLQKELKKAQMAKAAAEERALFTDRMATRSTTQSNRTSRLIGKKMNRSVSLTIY

HIPK1 (human) = HIPK1 (human) (UniProt Q86Z02)

Chain of CSNK1G2 (human) (P78368 whole entry, looked up): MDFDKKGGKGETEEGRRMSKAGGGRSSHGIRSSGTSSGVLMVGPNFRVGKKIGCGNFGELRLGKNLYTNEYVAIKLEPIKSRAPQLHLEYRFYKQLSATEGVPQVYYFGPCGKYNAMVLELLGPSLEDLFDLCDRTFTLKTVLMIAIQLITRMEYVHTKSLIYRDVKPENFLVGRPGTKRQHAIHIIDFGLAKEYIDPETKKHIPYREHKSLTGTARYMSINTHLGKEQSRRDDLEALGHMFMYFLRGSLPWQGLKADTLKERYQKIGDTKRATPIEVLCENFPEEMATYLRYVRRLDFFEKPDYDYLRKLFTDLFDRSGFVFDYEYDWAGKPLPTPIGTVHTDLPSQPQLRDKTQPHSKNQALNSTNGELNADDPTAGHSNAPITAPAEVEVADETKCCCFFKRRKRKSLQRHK
Chain of NEK7 (human) (Q8TDX7 whole entry, looked up): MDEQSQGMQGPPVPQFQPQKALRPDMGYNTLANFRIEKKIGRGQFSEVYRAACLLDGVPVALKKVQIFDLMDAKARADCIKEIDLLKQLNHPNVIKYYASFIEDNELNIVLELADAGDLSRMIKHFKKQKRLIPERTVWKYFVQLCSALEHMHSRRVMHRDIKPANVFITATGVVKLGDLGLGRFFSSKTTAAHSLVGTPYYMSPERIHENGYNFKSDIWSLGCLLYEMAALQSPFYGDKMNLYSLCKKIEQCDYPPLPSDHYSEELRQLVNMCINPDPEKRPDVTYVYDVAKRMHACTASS

SMILES: O=C1Cc2c([nH]c3ccc(Br)cc23)-c2ccccc2N1
- residual activity (CSNK1G2 (human)): 102%
- residual activity (SRMS (human)): 105%
- residual activity (NEK7 (human)): 94.3%
- residual activity (DYRK3 (human)): 113%
- residual activity (NEK3 (human)): 96.2%
- residual activity (RAF1 (human)): 91.5%
- residual activity (BTK (human)): 98%
- residual activity (DMPK (human)): 110%
- residual activity (PIM1 (human)): 96.8%
- residual activity (CSF1R (human)): 92.6%
- residual activity (EPHA8 (human)): 101%
- residual activity (STK25 (human)): 98.8%
- residual activity (PNCK (human)): 99.6%
- residual activity (MINK1 (human)): 29.6%
- residual activity (FGFR3 (human)): 101%
- residual activity (ITK (human)): 102%
- residual activity (PRKACA (human)): 102%
- residual activity (CAMK2G (human)): 116%
- residual activity (CSNK2A2 (human)): 74.6%
- residual activity (MUSK (human)): 87.6%
- residual activity (MARK3 (human)): 76.8%
- residual activity (CSNK1G1 (human)): 102%
- residual activity (FGFR4 (human)): 113%
- residual activity (OXSR1 (human)): 107%
- residual activity (ULK1 (human)): 93.8%
- residual activity (DYRK1A (human)): 98.8%
- residual activity (MAP3K5 (human)): 99.2%
- residual activity (EPHB3 (human)): 92.3%
- residual activity (PLK3 (human)): 96%
- residual activity (CAMK2A (human)): 105%
- residual activity (MYLK2 (human)): 96.8%
- residual activity (EPHA1 (human)): 100%
- residual activity (STK33 (human)): 103%
- residual activity (JAK3 JH1 JH2 (human)): 103%
- residual activity (MAP4K4 (human)): 6.61%
- residual activity (PBK (human)): 99.3%
- residual activity (MERTK (human)): 89.5%
- residual activity (PIM3 (human)): 84.6%
- residual activity (NUAK1 (human)): 14.6%
- residual activity (GSK3B (human)): 19.7%
- residual activity (WEE1 (human)): 87.7%

SMILES: CCN(CC)CCCCN1c2ccccc2Oc2ccc(Cl)cc21
- residual activity (CSNK1G2 (human)): 103%
- residual activity (SRMS (human)): 105%
- residual activity (NEK7 (human)): 89.7%
- residual activity (DYRK3 (human)): 99%
- residual activity (NEK3 (human)): 103%
- residual activity (RAF1 (human)): 105%
- residual activity (BTK (human)): 99.2%
- residual activity (DMPK (human)): 99.2%
- residual activity (CSF1R (human)): 97.8%
- residual activity (EPHA8 (human)): 102%
- residual activity (STK25 (human)): 92.6%
- residual activity (PNCK (human)): 107%
- residual activity (MINK1 (human)): 111%
- residual activity (FGFR3 (human)): 91.8%
- residual activity (ITK (human)): 101%
- residual activity (PRKACA (human)): 98.4%
- residual activity (CAMK2G (human)): 104%
- residual activity (CSNK2A2 (human)): 94.6%
- residual activity (MUSK (human)): 103%
- residual activity (MARK3 (human)): 102%
- residual activity (CSNK1G1 (human)): 104%
- residual activity (HIPK1 (human)): 106%
- residual activity (FGFR4 (human)): 92.6%
- residual activity (OXSR1 (human)): 89.8%
- residual activity (ULK1 (human)): 99.8%
- residual activity (DYRK1A (human)): 104%
- residual activity (MAP3K5 (human)): 106%
- residual activity (EPHB3 (human)): 112%
- residual activity (PLK3 (human)): 102%
- residual activity (CAMK2A (human)): 104%
- residual activity (MYLK2 (human)): 104%
- residual activity (EPHA1 (human)): 90.5%
- residual activity (STK33 (human)): 89.9%
- residual activity (JAK3 JH1 JH2 (human)): 106%
- residual activity (MAP4K4 (human)): 104%
- residual activity (PBK (human)): 105%
- residual activity (MERTK (human)): 95.5%
- residual activity (PIM3 (human)): 37.8%
- residual activity (NUAK1 (human)): 90.7%
- residual activity (GSK3B (human)): 113%
- residual activity (WEE1 (human)): 92.7%

SMILES: O=C1NC(=O)C(c2c[nH]c3ccccc23)=C1c1c[nH]c2ccccc12
- residual activity (CSNK1G2 (human)): 92%
- residual activity (SRMS (human)): 82.4%
- residual activity (NEK7 (human)): 99.9%
- residual activity (DYRK3 (human)): 101%
- residual activity (NEK3 (human)): 88.2%
- residual activity (RAF1 (human)): 122%
- residual activity (BTK (human)): 98.2%
- residual activity (DMPK (human)): 97.3%
- residual activity (PIM1 (human)): 17.2%
- residual activity (CSF1R (human)): 93.7%
- residual activity (EPHA8 (human)): 103%
- residual activity (STK25 (human)): 78.3%
- residual activity (PNCK (human)): 93.3%
- residual activity (MINK1 (human)): 83.4%
- residual activity (FGFR3 (human)): 70.7%
- residual activity (ITK (human)): 102%
- residual activity (PRKACA (human)): 101%
- residual activity (CAMK2G (human)): 104%
- residual activity (CSNK2A2 (human)): 92%
- residual activity (MUSK (human)): 76.4%
- residual activity (MARK3 (human)): 98.5%
- residual activity (HIPK1 (human)): 102%
- residual activity (FGFR4 (human)): 87.8%
- residual activity (OXSR1 (human)): 86.3%
- residual activity (ULK1 (human)): 105%
- residual activity (DYRK1A (human)): 80.8%
- residual activity (MAP3K5 (human)): 106%
- residual activity (EPHB3 (human)): 94.3%
- residual activity (PLK3 (human)): 99.9%
- residual activity (CAMK2A (human)): 85.3%
- residual activity (MYLK2 (human)): 91.9%
- residual activity (EPHA1 (human)): 92.1%
- residual activity (STK33 (human)): 97.7%
- residual activity (JAK3 JH1 JH2 (human)): 63%
- residual activity (MAP4K4 (human)): 58.5%
- residual activity (PBK (human)): 100%
- residual activity (MERTK (human)): 86.1%
- residual activity (PIM3 (human)): 32.7%
- residual activity (NUAK1 (human)): 78.5%
- residual activity (GSK3B (human)): 28.4%
- residual activity (WEE1 (human)): 98.1%

SMILES: Nc1nnc2[nH]c3ccccc3nc1-2
- residual activity (CSNK1G2 (human)): 93.8%
- residual activity (SRMS (human)): 88.5%
- residual activity (NEK7 (human)): 93.1%
- residual activity (DYRK3 (human)): 102%
- residual activity (NEK3 (human)): 94.9%
- residual activity (RAF1 (human)): 94.4%
- residual activity (BTK (human)): 93.9%
- residual activity (DMPK (human)): 98.4%
- residual activity (PIM1 (human)): 94%
- residual activity (CSF1R (human)): 95.3%
- residual activity (EPHA8 (human)): 104%
- residual activity (STK25 (human)): 99.9%
- residual activity (PNCK (human)): 102%
- residual activity (MINK1 (human)): 97.9%
- residual activity (FGFR3 (human)): 96.5%
- residual activity (ITK (human)): 101%
- residual activity (PRKACA (human)): 102%
- residual activity (CAMK2G (human)): 108%
- residual activity (CSNK2A2 (human)): 94%
- residual activity (MUSK (human)): 82.6%
- residual activity (MARK3 (human)): 102%
- residual activity (CSNK1G1 (human)): 99%
- residual activity (FGFR4 (human)): 94.9%
- residual activity (OXSR1 (human)): 92.7%
- residual activity (ULK1 (human)): 106%
- residual activity (DYRK1A (human)): 95.1%
- residual activity (MAP3K5 (human)): 103%
- residual activity (EPHB3 (human)): 90.3%
- residual activity (PLK3 (human)): 96.3%
- residual activity (CAMK2A (human)): 99.5%
- residual activity (MYLK2 (human)): 90.5%
- residual activity (EPHA1 (human)): 100%
- residual activity (STK33 (human)): 98.7%
- residual activity (JAK3 JH1 JH2 (human)): 68%
- residual activity (MAP4K4 (human)): 76.2%
- residual activity (PBK (human)): 106%
- residual activity (MERTK (human)): 92.9%
- residual activity (PIM3 (human)): 94%
- residual activity (NUAK1 (human)): 86.3%
- residual activity (GSK3B (human)): 99.7%
- residual activity (WEE1 (human)): 101%

SMILES: CN([C@@H](Cc1ccc(OS(=O)(=O)c2cccc3cnccc23)cc1)C(=O)N1CCN(c2ccccc2)CC1)S(=O)(=O)c1cccc2cnccc12
- residual activity (CSNK1G2 (human)): 100%
- residual activity (SRMS (human)): 103%
- residual activity (NEK7 (human)): 93.3%
- residual activity (DYRK3 (human)): 112%
- residual activity (NEK3 (human)): 99.8%
- residual activity (RAF1 (human)): 96.9%
- residual activity (BTK (human)): 97.1%
- residual activity (DMPK (human)): 108%
- residual activity (PIM1 (human)): 106%
- residual activity (CSF1R (human)): 95.1%
- residual activity (EPHA8 (human)): 99.6%
- residual activity (STK25 (human)): 98.8%
- residual activity (PNCK (human)): 99.7%
- residual activity (MINK1 (human)): 98.2%
- residual activity (FGFR3 (human)): 98.8%
- residual activity (ITK (human)): 99.4%
- residual activity (CSNK2A2 (human)): 121%
- residual activity (MUSK (human)): 92.7%
- residual activity (MARK3 (human)): 93.7%
- residual activity (CSNK1G1 (human)): 102%
- residual activity (HIPK1 (human)): 110%
- residual activity (FGFR4 (human)): 110%
- residual activity (OXSR1 (human)): 101%
- residual activity (ULK1 (human)): 101%
- residual activity (DYRK1A (human)): 102%
- residual activity (MAP3K5 (human)): 99.2%
- residual activity (EPHB3 (human)): 97%
- residual activity (PLK3 (human)): 99.3%
- residual activity (CAMK2A (human)): 107%
- residual activity (MYLK2 (human)): 98.8%
- residual activity (EPHA1 (human)): 102%
- residual activity (STK33 (human)): 97.3%
- residual activity (JAK3 JH1 JH2 (human)): 98%
- residual activity (MAP4K4 (human)): 94.8%
- residual activity (PBK (human)): 99.2%
- residual activity (MERTK (human)): 100%
- residual activity (PIM3 (human)): 113%
- residual activity (NUAK1 (human)): 97.5%
- residual activity (GSK3B (human)): 96.6%
- residual activity (WEE1 (human)): 87.7%
